From publication PMC6384738, “Structure-Function Studies of Polymyxin B Lipononapeptides” (Molecules, 2019)
≈ marks a conversion by molar mass, not a printed value. Where a SMILES comes first, the peptide text is derived from it. Bridges are numbered along the chain shown (N, C = ends). [ ]: non-standard residue; d: D form. The star is where a group is joined. Decanoyl(3R-OH) = CCCCCCC[C@@H](O)CC(=O)*; Butanoyl(4-OPh) = O=C(CCCOc1ccccc1)*; Octanoyl = CCCCCCCC(=O)*; Dab = NCC[C@H](N)C(=O)O

What was measured:
[1] = tested on: S. aureus ATCC 25923; assay: microbe, parasite or virus in culture; settings: for MIC S. aureus ATCC 25923: ATCC 25923, 18 h
Method: (§1) All compounds synthesised in this study were assessed for their minimum inhibitory concentrations (MIC, mg/L) by broth microdilution assay against five antibiotic-sensitive and resistant ATCC reference strains covering the Gram-negative ESKAPE pathogens (Escherichia coli, Klebsiella pneumoniae, A. baumannii, and P. aeruginosa) (Table 1, Table 2 and Table 3). Staphylococcus aureus was also included as a representative Gram-positive bacterial strain. […] Polymyxin B 1, colistin 2, vancomycin and gentamicin were used as positive inhibitor comparator compounds. Compounds were counter-screened against human proximal tubular epithelial cells (HK-2), using LDH release as a general indicator of cellular toxicity.

[2] = tested on: E. coli ATCC 25922; assay: microbe, parasite or virus in culture; settings: ATCC 25922, 18 h
Method: as §1

[3] = tested on: K. pneumoniae BAA 2146; assay: microbe, parasite or virus in culture; settings: for MIC K. pneumoniae BAA 2146: BAA 2146, 18 h
Method: as §1

[4] = tested on: K. pneumoniae ATCC 700603; assay: microbe, parasite or virus in culture; settings: for MIC K. pneumoniae ATCC 700603: ATCC 700603, 18 h
Method: as §1

[5] = tested on: K. pneumoniae ATCC 13833; assay: microbe, parasite or virus in culture; settings: for MIC K. pneumoniae ATCC 13833: ATCC 13833, 18 h
Method: as §1

[6] = tested on: A. baumannii ATCC 19606; assay: microbe, parasite or virus in culture; settings: for MIC A. baumannii ATCC 19606: ATCC 19606, 18 h
Method: as §1

[7] = tested on: P. aeruginosa ATTC 27853; assay: microbe, parasite or virus in culture; settings: for MIC P. aeruginosa ATTC 27853: ATTC 27853, 18 h
Method: as §1

[8] = in vitro; settings: human
Method: as §1
Cytotoxicity to human kidney proximal tubular epithelial cell line, HK-2 (ATCC CRL-2190, sourced from ATCC; Manassas, VA, USA) was determined using the LDH assay as previously described. In brief, HK-2 cells were seeded as 2000 cells/well in black-walled clear bottom 384-well tissue culture treated plates (Corning, catalogue No. 3712) in DMEM/F12 medium (Gibco® 10565-042) containing 10% of Fetal Bovine Serum (FBS, Gibco® 10099-141) and incubated for 24 h at 37 °C, 5% CO2. Compounds were then added into each well with a concentration series from 300 µM to 2.3 µM in 2-fold dilutions. Colistin and polymyxin B were used as controls and tested at a final concentration range of 1 mM to 7.8 µM. The cells were incubated with the compounds for 24 h at 37 °C, 5% CO2. After the incubation, 5 µL of culture medium was added to 45 µL of LDH assay buffer (Biovision, K313-500) and incubated for 30 min at room temperature. The absorbance (ABS) was then read at 450 nm using a Polar Star Omega plate reader. The data was analysed by Prism 6 software (GraphPad Software, La Jolla, CA, USA). Results were calculated using the following equation: cytotoxicity %= (ABSsamples − ABSuntreated/ABS1%Triton X-100 − ABSuntreated) × 100.

[9] = tested on: P. aeruginosa FADDI PA070; assay: microbe, parasite or virus in culture; settings: Pseudomonas aeruginosa, FADDIPA070, 18 h, read-out: MIC P. aeruginosa FADDI PA070
Method: as §1

| Structure (SMILES) | MIC S. aureus ATCC 25923 [1] [µg/mL] | MIC E. coli ATCC 25922 [2] [µg/mL] | MIC K. pneumoniae BAA 2146 [3] [µg/mL] | MIC K. pneumoniae ATCC 700603 [4] [µg/mL] | MIC K. pneumoniae ATCC 13833 [5] [µg/mL] | MIC A. baumannii ATCC 19606 [6] [µg/mL] | MIC P. aeruginosa ATTC 27853 [7] [µg/mL] | MIC ([1]; Staphylococcus aureus, ATCC25923, 18 h, read-out: MIC S. aureus ATCC 25923) [µg/mL] | MIC ([3]; Klebsiella pneumoniae, BAA2146, 18 h, read-out: MIC K. pneumoniae BAA 2146) [µg/mL] | MIC ([4]; Klebsiella pneumoniae, ATCC700603, 18 h, read-out: MIC K. pneumoniae ATCC 700603) [µg/mL] | MIC [9] [µg/mL] | MIC ([5]; Klebsiella pneumoniae, ATCC13833, 18 h, read-out: MIC K. pneumoniae ATCC 13833) [µg/mL] | MIC ([6]; Acinetobacter baumannii, ATCC19606, 18 h, read-out: MIC A. baumannii ATCC 19606) [µg/mL] | MIC ([7]; Pseudomonas aeruginosa, ATTC27853, 18 h, read-out: MIC P. aeruginosa ATTC 27853) [µg/mL] | CC50 at 24 h [8] [µM] |
| --- | --- | --- | --- | --- | --- | --- | --- | --- | --- | --- | --- | --- | --- | --- | --- |
| CCCCCCCC(=O)N[C@H](C(=O)NCC(=O)N[C@H]1CCNC(=O)[C@H]([C@@H](C)O)NC(=O)[C@H](CCN)NC(=O)[C@H](CCN)NC(=O)[C@H](CC(C)C)NC(=O)[C@@H](Cc2ccccc2)NC(=O)[C@H](CCN)NC1=O)[C@@H](C)O [Compound 49] (Octanoyl-TG[Dab][Dab][dF]L[Dab][Dab]T; lactam 3-C) | >32 | 4 (≈ 3.82 µM) | >32 | >32 | >32 | >32 | >32 |  |  |  |  |  |  |  | 163 |
| CC(C)C[C@@H]1NC(=O)[C@@H](Cc2ccccc2)NC(=O)[C@H](CCN)NC(=O)[C@@H](NC(=O)CNC(=O)[C@@H](NC(=O)CCCOc2ccccc2)[C@@H](C)O)CCNC(=O)[C@H]([C@@H](C)O)NC(=O)[C@H](CCN)NC(=O)[C@H](CCN)NC1=O [Compound 51] ({Butanoyl(4-OPh)}-TG[Dab][Dab][dF]L[Dab][Dab]T; lactam 3-C) | >32 | 2 (≈ 1.85 µM) | 4 (≈ 3.7 µM) | 16 (≈ 14.8 µM) | >32 | 16 (≈ 14.8 µM) | 8 (≈ 7.39 µM) |  |  |  |  |  |  |  | > 300 |
| CCCCCCC[C@@H](O)CC(=O)N[C@H](C(=O)NCC(=O)N[C@H]1CCNC(=O)[C@H]([C@@H](C)O)NC(=O)[C@H](CCN)NC(=O)[C@H](CCN)NC(=O)[C@H](CC(C)C)NC(=O)[C@@H](Cc2ccccc2)NC(=O)[C@H](CCN)NC1=O)[C@@H](C)O [Compound 52] ({Decanoyl(3R-OH)}-TG[Dab][Dab][dF]L[Dab][Dab]T; lactam 3-C) | >32 | 1 (≈ 0.917 µM) | 4 (≈ 3.67 µM) | 4 (≈ 3.67 µM) | >32 | 32 (≈ 29.3 µM) | 4 (≈ 3.67 µM) |  |  |  |  |  |  |  | > 300 |
| CNC(C)C1CCC(N)C(OC2C(N)CC(N)C(OC3OCC(C)(O)C(NC)C3O)C2O)O1 (stereo not drawn) [Gent, gentamicin, reference compound] |  |  |  |  |  |  |  | 0.5 (≈ 1.05 µM) | > 32 | 8 (≈ 16.8 µM) | 32 (≈ 67 µM) | 0.25 (≈ 0.523 µM) | 32 (≈ 67 µM) | > 32 | > 300 |

More lines, main results first:

| MIC S. aureus ATCC 25923 [1] [µg/mL] | MIC E. coli ATCC 25922 [2] [µg/mL] | MIC K. pneumoniae BAA 2146 [3] [µg/mL] | MIC K. pneumoniae ATCC 700603 [4] [µg/mL] | MIC K. pneumoniae ATCC 13833 [5] [µg/mL] | MIC A. baumannii ATCC 19606 [6] [µg/mL] | MIC P. aeruginosa ATTC 27853 [7] [µg/mL] | MIC ([1]; Staphylococcus aureus, ATCC25923, 18 h, read-out: MIC S. aureus ATCC 25923) [µg/mL] | MIC ([3]; Klebsiella pneumoniae, BAA2146, 18 h, read-out: MIC K. pneumoniae BAA 2146) [µg/mL] | MIC ([4]; Klebsiella pneumoniae, ATCC700603, 18 h, read-out: MIC K. pneumoniae ATCC 700603) [µg/mL] | MIC [9] [µg/mL] | MIC ([5]; Klebsiella pneumoniae, ATCC13833, 18 h, read-out: MIC K. pneumoniae ATCC 13833) [µg/mL] | MIC ([6]; Acinetobacter baumannii, ATCC19606, 18 h, read-out: MIC A. baumannii ATCC 19606) [µg/mL] | MIC ([7]; Pseudomonas aeruginosa, ATTC27853, 18 h, read-out: MIC P. aeruginosa ATTC 27853) [µg/mL] | Structure (SMILES) | CC50 at 24 h [8] [µM] |
| --- | --- | --- | --- | --- | --- | --- | --- | --- | --- | --- | --- | --- | --- | --- | --- |
| >32 | 2 (≈ 1.78 µM) | 4 (≈ 3.55 µM) | 4 (≈ 3.55 µM) | 4 (≈ 3.55 µM) | 4 (≈ 3.55 µM) | 16 (≈ 14.2 µM) |  |  |  |  |  |  |  | CCCCCCCC(=O)N[C@H](C(=O)N[C@H](Cc1c[nH]cn1)C(=O)N[C@H]1CCNC(=O)[C@H]([C@@H](C)O)NC(=O)[C@H](CCN)NC(=O)[C@H](CCN)NC(=O)[C@H](CC(C)C)NC(=O)[C@@H](Cc2ccccc2)NC(=O)[C@H](CCN)NC1=O)[C@@H](C)O [Compound 48] (Octanoyl-T[dH][Dab][Dab][dF]L[Dab][Dab]T; lactam 3-C) | > 300 |
| >32 | >32 | >32 | >32 | >32 | >32 | 2 (≈ 2.08 µM) |  |  |  |  |  |  |  | CC(C)C[C@@H]1NC(=O)[C@@H](Cc2ccccc2)NC(=O)[C@H](CCN)NC(=O)[C@@H](NC(=O)[C@H](CCN)NC(=O)[C@@H](N)[C@@H](C)O)CCNC(=O)[C@H]([C@@H](C)O)NC(=O)[C@H](CCN)NC(=O)[C@H](CCN)NC1=O [PMBN, polymyxin B nonapeptide, reference compound] (H-T[Dab][Dab][Dab][dF]L[Dab][Dab]T; lactam 3-C (inferred)) | > 300 |
